The molecules below were run on Nrf2 (assay: Evaluation of Nrf2 activation ability (Nrf2d-LacZ / Keap1 HEK293 reporter, Beta-Glo luminescence)). Conditions: Pharmacological Test Example 1, rated A/B/C.
Assay type: cell-based, human
Summary of the method: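 HEK293 cells stably expressing a human Nrf2 degron–LacZ fusion plus human Keap1 were exposed to compound for 3 h at 37° C. Reporter β-galactosidase was read by Beta-Glo luminescence after 1 h at RT. Activation is given as % of the signal with 100 nM CDDO-Im.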

Row | EC50 [nM] | Structure (SMILES)
1 | < 1000 | COc1ccccc1-c1cnn(-c2cc(O)n[s+]2[O-])c1 (stereo not drawn) [Example 387]
2 | < 1000 | COC(=O)C1(c2ccc(-c3cnn(-c4cc(O)n[s+]4[O-])c3)cc2)CC1 (stereo not drawn) [Example 324]
3 | 1000 to 5000 | Cc1nn(-c2cc(O)n[s+]2[O-])c(C)c1C1=CCCCC1 (stereo not drawn) [Example 315]
4 | 1000 to 5000 | CN1C(=O)C(C)(C)c2cc(-c3cnn(-c4cc(O)n[s+]4[O-])c3)ccc21 (stereo not drawn) [Example 425]
5 | 1000 to 5000 | [O-][s+]1nc(O)cc1-n1cc(-c2ccc(OCc3cccc(C(F)(F)F)c3)cc2)cn1 (stereo not drawn) [Example 375]
6 | 1000 to 5000 | CNc1ccc(-c2cnn(-c3cc(O)n[s+]3[O-])c2)cn1 (stereo not drawn) [Example 400]
7 | < 1000 | COc1ccc(-c2cnn(-c3cc(O)n[s+]3[O-])c2)c(OC)n1 (stereo not drawn) [Example 399]
8 | 1000 to 5000 | [O-][s+]1nc(O)cc1-n1cc(CCOc2cccnc2)cn1 (stereo not drawn) [Example 412]
9 | 1000 to 5000 | [O-][s+]1nc(O)cc1-n1cc(-c2ccc(F)nc2)cn1 (stereo not drawn) [Example 443]
10 | < 1000 | [O-][s+]1nc(O)cc1-n1cc(-c2cnc(C3CC3)cn2)cn1 (stereo not drawn) [Example 414]
11 | < 1000 | [O-][s+]1nc(O)cc1-n1cc(C2Cc3ccccc3C2)cn1 (stereo not drawn) [Example 397]
12 | 5000 to 10000 | Cc1cncc(-c2cnn(-c3cc(O)n[s+]3[O-])c2)c1 (stereo not drawn) [Example 401]
13 | < 1000 | COc1cccc(-c2cnn(-c3cc(O)n[s+]3[O-])c2)c1 (stereo not drawn) [Example 388]
14 | 1000 to 5000 | [O-][s+]1nc(O)cc1-n1cc(-c2ccc(N3CCCC3)nc2)cn1 (stereo not drawn) [Example 322]
15 | 1000 to 5000 | [O-][s+]1nc(O)cc1-n1cc(-c2cnc(C(F)(F)F)cn2)cn1 (stereo not drawn) [Example 415]
16 | < 1000 | [O-][s+]1nc(O)cc1-n1cc(-c2ccc3ccccc3c2)cn1 (stereo not drawn) [Example 340]

Row | EC50 [nM] | Structure (SMILES)
17 | 5000 to 10000 | [O-][s+]1nc(O)cc1-n1cc(-c2cnccn2)cn1 (stereo not drawn) [Example 428]
18 | < 1000 | COc1nc(Cl)ccc1-c1cnn(-c2cc(O)n[s+]2[O-])c1 (stereo not drawn) [Example 435]
19 | < 1000 | [O-][s+]1nc(O)cc1-n1cc(-c2ccccc2)cn1 (stereo not drawn) [Example 363]
20 | 1000 to 5000 | COC(=O)c1ccccc1-c1cnn(-c2cc(O)n[s+]2[O-])c1 (stereo not drawn) [Example 330]
21 | 1000 to 5000 | [O-][s+]1nc(O)cc1-n1cc(-c2ccccc2-c2ccccc2)cn1 (stereo not drawn) [Example 328]
22 | 1000 to 5000 | [O-][s+]1nc(O)cc1-n1cc(-c2cccnc2C(F)(F)F)cn1 (stereo not drawn) [Example 395]
23 | 1000 to 5000 | COc1cc(-c2cnn(-c3cc(O)n[s+]3[O-])c2)cc(OC)c1OC (stereo not drawn) [Example 390]
24 | 1000 to 5000 | CN(c1ccc(-c2cnn(-c3cc(O)n[s+]3[O-])c2)cn1)C1CCOCC1 (stereo not drawn) [Example 459]
25 | < 1000 | Cn1ccc2ccc(-c3cnn(-c4cc(O)n[s+]4[O-])c3)cc21 (stereo not drawn) [Example 353]
26 | < 1000 | COc1ccc(-c2cnn(-c3cc(O)n[s+]3[O-])c2)cc1 (stereo not drawn) [Example 389]
27 | 1000 to 5000 | Cc1cnc(-c2cnn(-c3cc(O)n[s+]3[O-])c2)cn1 (stereo not drawn) [Example 413]
28 | < 1000 | [O-][s+]1nc(O)cc1-n1cc(-c2ccc(-c3ccc(N4CCCC4)nc3)nc2)cn1 (stereo not drawn) [Example 441]
29 | < 1000 | [O-][s+]1nc(O)cc1-n1cc(C#Cc2ccc(Cl)nc2)cn1 (stereo not drawn) [Example 436]
30 | < 1000 | [O-][s+]1nc(O)cc1-n1cc(-c2cnc3ccccc3n2)cn1 (stereo not drawn) [Example 408]
31 | 1000 to 5000 | [O-][s+]1nc(O)cc1-n1cc(CCOc2ccccc2)cn1 (stereo not drawn) [Example 329]

Same assay, conditions: rated A/B/C, Pharmacological Test Example 1

Row | EC50 [nM] | Structure (SMILES)
32 | < 1000 | [O-][s+]1nc(O)cc1-n1ncc2cc(-c3cnc4c(c3)OCCCN4)ccc21 (stereo not drawn) [Example 190]
33 | 1000 to 5000 | CC(C)(C)OC(=O)N1Cc2cn(-c3cc(O)n[s+]3[O-])nc2C1 (stereo not drawn) [Example 246]
34 | 1000 to 5000 | O=C(c1ccc(-c2ccc3c(cnn3-c3cc(O)n[s+]3[O-])c2)cn1)N1CCCC1 (stereo not drawn) [Example 157]
35 | 1000 to 5000 | CN1CCOc2cc(-c3ccc4c(c3)c(C3CC3)nn4-c3cc(O)n[s+]3[O-])cnc21 (stereo not drawn) [Example 216]
36 | < 1000 | Cc1cncc(-c2ccc3c(cnn3-c3cc(O)n[s+]3[O-])c2)c1 (stereo not drawn) [Example 49]
37 | < 1000 | CN1CCCCOc2cc(-c3ccc4c(cnn4-c4cc(O)n[s+]4[O-])c3)cnc21 (stereo not drawn) [Example 205]
38 | 5000 to 10000 | [O-][s+]1nc(O)cc1-n1cc(C2CCOCC2)cn1 (stereo not drawn) [Example 308]
39 | < 1000 | O=C(C1CC1(F)F)N1CCOc2cc(-c3ccc4c(cnn4-c4cc(O)n[s+]4[O-])c3)cnc21 (stereo not drawn) [Example 151]
40 | < 1000 | COc1cc(-c2ccc(N3CCCC3)nc2)c2cnn(-c3cc(O)n[s+]3[O-])c2c1 (stereo not drawn) [Example 175]
41 | 1000 to 5000 | Cc1cc(-c2ccccc2)nn1-c1cc(O)n[s+]1[O-] (stereo not drawn) [Example 310]
42 | < 1000 | [O-][s+]1nc(O)cc1-n1cc(-c2cccc(Br)c2)cn1 (stereo not drawn) [Example 290]
43 | < 1000 | CN1CCOc2cc(-c3ccc4c(c3)c(Cl)nn4-c3cc(O)n[s+]3[O-])cnc21 (stereo not drawn) [Example 169]
44 | < 1000 | CC1(C)CNc2ncc(-c3ccc4c(cnn4-c4cc(O)n[s+]4[O-])c3)cc2O1 (stereo not drawn) [Example 189]
45 | 1000 to 5000 | [O-][s+]1nc(O)cc1-n1ncc2c(-c3ccccc3)cccc21 (stereo not drawn) [Example 79]
46 | 1000 to 5000 | O=C(c1ccc(-c2ccc3c(cnn3-c3cc(O)n[s+]3[O-])c2)cc1)N1CCCC1 (stereo not drawn) [Example 75]
47 | < 1000 | [O-][s+]1nc(O)cc1-n1ncc2c3ccccc3ncc21 (stereo not drawn) [Example 239]
48 | < 1000 | [O-][s+]1nc(O)cc1-n1ncc2cc(-c3cccc(N4CCCC4)n3)ccc21 (stereo not drawn) [Example 138]
49 | 1000 to 5000 | COc1cc(C2CC2)c2cnn(-c3cc(O)n[s+]3[O-])c2c1 (stereo not drawn) [Example 183]
50 | 5000 to 10000 | Cc1nn(-c2cc(O)n[s+]2[O-])c(C)c1C1=CCN(C(=O)OC(C)(C)C)CC1 (stereo not drawn) [Example 313]

Row | EC50 [nM] | Structure (SMILES)
51 | 1000 to 5000 | Cc1cncc(-c2cccc3c2cnn3-c2cc(O)n[s+]2[O-])c1 (stereo not drawn) [Example 100]
52 | < 1000 | [O-][s+]1nc(O)cc1-n1ncc2cc(Br)ccc21 (stereo not drawn) [Example 2, 5-(5-bromoindazol-1-yl)-1-oxo-1,2-thiazol-3-ol]
53 | 1000 to 5000 | [O-][s+]1nc(O)cc1-n1ncc2ccccc21 (stereo not drawn) [Example 16]
54 | 1000 to 5000 | N#Cc1ccc2c(cnn2-c2cc(O)n[s+]2[O-])c1 (stereo not drawn) [Example 19]
55 | < 1000 | [O-][s+]1nc(O)cc1-n1ncc2cc(-c3cncc(N4CCCCC4)c3)ccc21 (stereo not drawn) [Example 153]
56 | 1000 to 5000 | Cc1cccc2c1cnn2-c1cc(O)n[s+]1[O-] (stereo not drawn) [Example 23]
57 | < 1000 | [O-][s+]1nc(O)cc1-n1ncc2cc(Cl)ccc21 (stereo not drawn) [Example 12]
58 | 1000 to 5000 | COc1ccc2c(cnn2-c2cc(O)n[s+]2[O-])c1 (stereo not drawn) [Example 24]
59 | < 1000 | [O-][s+]1nc(O)cc1-n1ncc2cc(-c3cncc(N4CCCC4)c3)ccc21 (stereo not drawn) [Example 135]
60 | < 1000 | [O-][s+]1nc(O)cc1-n1ncc2cc(-c3cnc4c(c3)OCCN4CC3CC3)ccc21 (stereo not drawn) [Example 150]
61 | < 1000 | [2H]c1cccc(-c2ccc3c(cnn3-c3cc(O)n[s+]3[O-])c2)n1 (stereo not drawn) [Example 82]
62 | < 1000 | [O-][s+]1nc(O)cc1-n1ncc2cc(-c3cccnc3)ccc21 (stereo not drawn) [Example 38]
63 | < 1000 | CC(C)(C)OC(=O)N1CCC(c2ccc3c(cnn3-c3cc(O)n[s+]3[O-])c2)CC1 (stereo not drawn) [Example 62]
64 | < 1000 | [O-][s+]1nc(O)cc1-n1ncc2cc(-c3ccc(C4CC4)nc3)ncc21 (stereo not drawn) [Example 237]
65 | 1000 to 5000 | CC(C)(C)OC(=O)N1CCc2nn(-c3cc(O)n[s+]3[O-])cc2C1 (stereo not drawn) [Example 248]
66 | 5000 to 10000 | [O-][s+]1nc(O)cc1-n1ncc2c1CN(Cc1ccc(C(F)(F)F)nc1)C2 (stereo not drawn) [Example 265]
67 | 1000 to 5000 | N#Cc1nn(-c2cc(O)n[s+]2[O-])c2ccc(Cl)cc12 (stereo not drawn) [Example 21]
68 | < 1000 | CCN1CCOc2cc(-c3ccc4c(cnn4-c4cc(O)n[s+]4[O-])c3)cnc21 (stereo not drawn) [Example 143]
69 | < 1000 | CN1CCOc2cc(-c3ccc4c(cnn4-c4cc(O)n[s+]4[O-])c3)c(C(F)F)nc21 (stereo not drawn) [Example 204]

Row | EC50 [nM] | Structure (SMILES)
70 | 5000 to 10000 | Cc1cncc(-c2ccc3cnn(-c4cc(O)n[s+]4[O-])c3c2)c1 (stereo not drawn) [Example 113]
71 | < 1000 | CN1C(=O)COc2cc(-c3ccc4c(cnn4-c4cc(O)n[s+]4[O-])c3)cnc21 (stereo not drawn) [Example 197]
72 | < 1000 | [O-][s+]1nc(O)cc1-n1ncc2cc(-c3ccccn3)ccc21 (stereo not drawn) [Example 43]
73 | 1000 to 5000 | O=C(c1c(Cl)cccc1Cl)c1nn(-c2cc(O)n[s+]2[O-])c2ccccc12 (stereo not drawn) [Example 22]
74 | 1000 to 5000 | COc1ccc(-c2ccc3c(cnn3-c3cc(O)n[s+]3[O-])c2)c(C)n1 (stereo not drawn) [Example 6]
75 | < 1000 | COCC1CCCN1c1ccc(-c2ccc3c(cnn3-c3cc(O)n[s+]3[O-])c2)cn1 (stereo not drawn) [Example 198]
76 | 5000 to 10000 | O=C(c1ccccc1)N1CCC(c2ccc3c(cnn3-c3cc(O)n[s+]3[O-])c2)CC1 (stereo not drawn) [Example 168]
77 | < 1000 | COc1cc2cnn(-c3cc(O)n[s+]3[O-])c2cn1 (stereo not drawn) [Example 242]
78 | 1000 to 5000 | [O-][s+]1nc(O)cc1-n1ncc2cc(C3CC3)ccc21 (stereo not drawn) [Example 27]
79 | 1000 to 5000 | Cc1nn(-c2cc(O)n[s+]2[O-])c(C)c1I (stereo not drawn) [Example 305]
80 | 1000 to 5000 | O=c1[nH]ccc2cc(-c3ccc4c(cnn4-c4cc(O)n[s+]4[O-])c3)ccc12 (stereo not drawn) [Example 64]
81 | 1000 to 5000 | Nc1ccc(-c2ccc3c(cnn3-c3cc(O)n[s+]3[O-])c2)cn1 (stereo not drawn) [Example 45]
82 | < 1000 | [O-][s+]1nc(O)cc1-n1ncc2cc(-c3cccc(F)c3)ccc21 (stereo not drawn) [Example 84]
83 | < 1000 | [O-][s+]1nc(O)cc1-n1ncc2cc(-c3cnc4c(c3)OCC3CCCN43)ccc21 (stereo not drawn) [Example 212]
84 | 1000 to 5000 | CC(C)(C)OC(=O)N1CCCc2nn(-c3cc(O)n[s+]3[O-])cc2C1 (stereo not drawn) [Example 250]
85 | 1000 to 5000 | COc1cc2c(cnn2-c2cc(O)n[s+]2[O-])cc1C1=CCN(C(=O)OC(C)(C)C)CC1 (stereo not drawn) [Example 71]
86 | 1000 to 5000 | CC(C)(C)OC(=O)N1CCc2c(cnn2-c2cc(O)n[s+]2[O-])C1 (stereo not drawn) [Example 247]
87 | 1000 to 5000 | CN(C(=O)N1CCC(c2ccc3c(cnn3-c3cc(O)n[s+]3[O-])c2)CC1)c1ccccc1 (stereo not drawn) [Example 170]

From patent publication US10201531B2, “Indazolyl-oxo-isothiazole compounds” (MOCHIDA PHARMACEUTICAL CO., LTD., priority 2015, dated 2019)
